Test results taken from paper PMC12250084 (International Journal of Molecular Sciences, 2025).
pKd: −log10 of the molar value.

Key:
S protein of HCoV-229E = S protein of HCoV-229E (Human coronavirus 229E, UniProt P15423); test: SPR, Reichert4, CM5 chip, protein immobilised; type: binding
S protein of HCoV-OC43 = S protein of HCoV-OC43 (Human coronavirus OC43, UniProt P36334); test: SPR, Reichert4, CM5 chip, protein immobilised; type: binding
S protein of HCoV-OC43, sequence (P36334 14-1353): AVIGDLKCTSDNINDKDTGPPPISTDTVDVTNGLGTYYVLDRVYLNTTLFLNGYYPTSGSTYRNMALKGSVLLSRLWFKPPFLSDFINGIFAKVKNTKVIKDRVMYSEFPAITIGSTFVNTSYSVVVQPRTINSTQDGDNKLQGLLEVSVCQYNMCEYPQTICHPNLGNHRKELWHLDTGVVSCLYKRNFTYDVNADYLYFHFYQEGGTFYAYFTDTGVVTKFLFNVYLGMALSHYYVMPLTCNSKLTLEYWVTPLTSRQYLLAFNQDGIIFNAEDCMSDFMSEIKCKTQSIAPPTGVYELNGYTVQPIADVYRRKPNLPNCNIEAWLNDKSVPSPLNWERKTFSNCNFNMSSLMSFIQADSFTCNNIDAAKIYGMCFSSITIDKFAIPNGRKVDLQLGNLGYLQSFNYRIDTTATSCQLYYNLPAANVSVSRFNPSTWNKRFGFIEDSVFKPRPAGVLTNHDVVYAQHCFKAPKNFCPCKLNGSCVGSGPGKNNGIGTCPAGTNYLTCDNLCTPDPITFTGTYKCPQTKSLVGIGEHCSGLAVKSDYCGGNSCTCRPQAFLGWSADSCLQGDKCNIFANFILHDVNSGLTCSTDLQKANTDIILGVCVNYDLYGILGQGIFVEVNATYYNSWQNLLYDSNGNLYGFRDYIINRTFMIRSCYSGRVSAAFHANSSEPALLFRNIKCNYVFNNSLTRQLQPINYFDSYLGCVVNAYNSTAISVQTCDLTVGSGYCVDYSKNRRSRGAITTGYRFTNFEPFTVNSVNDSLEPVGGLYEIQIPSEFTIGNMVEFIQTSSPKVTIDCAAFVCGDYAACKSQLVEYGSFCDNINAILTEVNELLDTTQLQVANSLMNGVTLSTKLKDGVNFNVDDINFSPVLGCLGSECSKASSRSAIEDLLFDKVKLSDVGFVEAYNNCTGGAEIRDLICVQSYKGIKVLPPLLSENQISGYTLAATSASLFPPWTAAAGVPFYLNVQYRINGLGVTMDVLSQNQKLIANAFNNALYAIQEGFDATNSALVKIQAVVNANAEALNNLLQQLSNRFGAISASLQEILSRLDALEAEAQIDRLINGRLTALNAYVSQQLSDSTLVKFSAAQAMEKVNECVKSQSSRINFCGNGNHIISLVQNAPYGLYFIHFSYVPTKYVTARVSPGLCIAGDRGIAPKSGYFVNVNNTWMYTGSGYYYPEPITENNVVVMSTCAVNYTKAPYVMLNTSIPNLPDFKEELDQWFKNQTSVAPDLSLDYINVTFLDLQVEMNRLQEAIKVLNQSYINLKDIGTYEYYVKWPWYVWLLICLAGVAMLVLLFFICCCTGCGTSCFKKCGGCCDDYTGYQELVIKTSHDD

S protein of HCoV-229E, sequence (P15423 16-1173): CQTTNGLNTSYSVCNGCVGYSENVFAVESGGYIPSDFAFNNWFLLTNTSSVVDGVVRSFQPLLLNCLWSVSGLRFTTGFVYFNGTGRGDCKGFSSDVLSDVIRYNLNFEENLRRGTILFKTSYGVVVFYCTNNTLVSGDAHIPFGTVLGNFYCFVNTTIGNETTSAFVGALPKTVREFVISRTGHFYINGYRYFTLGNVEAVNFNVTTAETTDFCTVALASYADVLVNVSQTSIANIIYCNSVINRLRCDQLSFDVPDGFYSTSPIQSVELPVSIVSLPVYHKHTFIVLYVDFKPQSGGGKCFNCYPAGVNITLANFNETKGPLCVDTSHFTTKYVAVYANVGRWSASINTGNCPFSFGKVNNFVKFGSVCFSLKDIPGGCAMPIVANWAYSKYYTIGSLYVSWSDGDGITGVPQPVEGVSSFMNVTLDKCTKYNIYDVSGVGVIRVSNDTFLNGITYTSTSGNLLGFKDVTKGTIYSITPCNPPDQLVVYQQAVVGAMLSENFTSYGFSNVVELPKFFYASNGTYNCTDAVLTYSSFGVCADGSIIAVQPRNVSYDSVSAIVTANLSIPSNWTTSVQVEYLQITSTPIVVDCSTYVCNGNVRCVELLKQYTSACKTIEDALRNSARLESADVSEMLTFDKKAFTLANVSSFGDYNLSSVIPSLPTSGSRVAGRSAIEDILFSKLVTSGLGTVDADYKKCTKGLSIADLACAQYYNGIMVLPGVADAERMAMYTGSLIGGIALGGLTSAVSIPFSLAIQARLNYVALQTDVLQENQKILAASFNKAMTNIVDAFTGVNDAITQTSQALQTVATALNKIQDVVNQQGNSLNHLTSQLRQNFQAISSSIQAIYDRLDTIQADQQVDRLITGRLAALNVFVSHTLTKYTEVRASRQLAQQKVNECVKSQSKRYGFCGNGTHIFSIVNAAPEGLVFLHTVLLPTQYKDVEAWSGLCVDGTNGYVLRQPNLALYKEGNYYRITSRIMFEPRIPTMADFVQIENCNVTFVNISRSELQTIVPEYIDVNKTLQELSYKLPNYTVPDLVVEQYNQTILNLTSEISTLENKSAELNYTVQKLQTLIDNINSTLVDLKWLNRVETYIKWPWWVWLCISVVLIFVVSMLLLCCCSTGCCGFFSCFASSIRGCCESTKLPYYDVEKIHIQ

CC1(C)[C@@H](O[C@H]2O[C@H](C(=O)O)[C@@H](O)[C@H](O)[C@H]2O[C@@H]2O[C@H](C(=O)O)[C@@H](O)[C@H](O)[C@H]2O)CC[C@]2(C)[C@H]3C(=O)C=C4[C@@H]5C[C@@](C)(C(=O)O)CC[C@]5(C)CC[C@@]4(C)[C@]3(C)CC[C@@H]12 [Diammonium glycyrrhizinate]
pKd (S protein of HCoV-229E): 4.42 | pKd (S protein of HCoV-OC43): 5.24
